Source: patent publication US7482358B2, “Imidazoline compounds” (Banyu Pharmaceutical Co., Ltd., priority 2000, dated 2009)
Like-named read-outs stand apart in the source and are kept apart here.

Assays:
human NPY Y5 receptor = molecular target: T1, human NPY Y5 receptor (Homo sapiens, UniProt Q15761); assay: NPY binding inhibition test ([125I] peptide YY binding to membranes of cells expressing NPY Y5 receptor); details: against specific [125I] peptide YY binding, 25° C., 2 hours; read-out: IC50, inhibitory activities on NPY receptor binding
T1 construct: expressed in transfected cells; host or cells: COS-7, CHO and LM(tk-)
T1 sequence (Q15761 1-445): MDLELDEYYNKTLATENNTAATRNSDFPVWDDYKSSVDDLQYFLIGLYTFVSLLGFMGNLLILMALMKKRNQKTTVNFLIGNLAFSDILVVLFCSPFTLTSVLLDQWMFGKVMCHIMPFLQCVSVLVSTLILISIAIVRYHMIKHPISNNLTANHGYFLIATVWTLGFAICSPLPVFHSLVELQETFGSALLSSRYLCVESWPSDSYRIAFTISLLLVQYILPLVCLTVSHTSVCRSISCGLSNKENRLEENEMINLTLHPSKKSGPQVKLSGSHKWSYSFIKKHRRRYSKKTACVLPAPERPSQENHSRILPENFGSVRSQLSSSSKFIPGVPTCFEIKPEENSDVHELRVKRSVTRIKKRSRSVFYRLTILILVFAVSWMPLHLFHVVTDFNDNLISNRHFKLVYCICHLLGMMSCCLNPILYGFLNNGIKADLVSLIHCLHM
Experimental: These obtained expression vectors were transfected to host cells COS-7, CHO and LM(tk-)(American Type Culture Collection) by cationic lipid method (Confer Proceedings of the National Academy of Sciences of the United States of America, vol. 84:7413(1987)) to give recombinant cells which express NPY Y5 receptor.
A membrane sample prepared from the cells which expressed NPY Y5 receptor was incubated together with a test compound and (^125I) peptide YY (made by NEN) (20,00 cpm) in an assay buffer (25 mM Tris buffer, pH7.4, containing 10 mM magnesium chloride, 1 mM phenylmethylsulfonyl fluoride, 0.1% bacitracin and 0.5% bovine serum albumin) at 25° C. for 2 hours, then filtered through a glass filter GF/C and washed with 5 mM Tris buffer (pH7.4) containing 0.3% BSA. The radioactivity on the glass filter was measured. Nonspecific binding was measured in the presence of 1 μM peptide YY and a 50% Inhibitory Concentration (IC50) of the test compound against specific peptide YY binding was determined (Confer Endocrinology, vol. 131: 2090(1992)).

[1] = Test for pharmacokinetics; assay type: in vivo; details: male SD rats, overnight fasting, oral or intravenous
Experimental: Pharmacological Test 3 (Test for Pharmacokinetics)
The tested compound was administered orally or intravenously to male SD rats (7-10 weeks old, 200-400 g) under overnight fasting condition, and about 100 μL of blood was taken from tail vein using a heparinized capillary at predefined time points. The blood samples were separated by centrifuge (4° C., 6,000 rpm, for 10 minutes) to obtain plasma. To the plasma, 3-fold volume of ethanol containing the internal standard substances was added and the mixture was stirred, then left at −20° C. for 20 minutes, followed by centrifugation (4° C., 10,000 rpm for 10 minutes). The supernatant was analyzed by LC/MS/MS and then the concentration of the test compound in plasma was measured by the relative calibration curve method.

[2] = Brain and cerebrospinal fluid penetration test; assay type: in vivo, male SD rats; details: 2 hours after oral administration (10 mg/kg), rat; for concentration at 2 h: male, Sprague-Dawley
Experimental: Pharmacological Test 4 (Brain and Cerebrospinal Fluid Penetration Test)
The tested compound was administered orally or intravenously to male SD rats (7-10 weeks old, 200-400 g). The rats anesthetized with ether, and the all blood were taken at predefined time points with a heparinized syringe from the abdominal aorta. Further, the rats were cut the skin of occipital region of head and inserted a 30 G dental needle between cervical vertebrae, into subarachnoid cavity. And then, 50-100 μL of cerebrospinal fluid was collected in a 1 mL syringe through a tube connected with the 30G dental needle, followed by taking out the brain. To the plasma obtained from the centrifuged blood sample (4° C., 6,000 rpm, for 10 minutes), 3-fold volume of ethanol including the internal standard substances was added and the mixture was stirred. To the brain sample, 2 mL of water was added and the mixture was homogenized. To an aliquot of the homogenized mixture, 3-fold volume of ethanol including the internal standard substances was added, followed by stirring. To the cerebrospinal fluid, 3-fold volume of ethanol containing the internal standard substances was added, followed by stirring. The above samples were left at −20° C. for 20 minutes and separated by centrifuge (4° C., 12,000 g, for 10 minutes). The supernatant was analyzed by LC/MS/MS and then each concentration in plasma, brain and cerebrospinal fluid was measured by the relative calibration curve method.

SMILES | melting point [°C] | further results
N#Cc1cccc(C2=NC(c3cccc(F)c3)(c3cccc(F)c3)CN2)c1 [Example 5-1, 2-(3-cyanophenyl)-4,4-bis(3-fluorophenyl)-2-imidazoline] |  | IC50 (human NPY Y5 receptor): 2.3 nM
Cc1ccc(C2(c3ccccc3)CNC(c3cccc(C#N)c3)=N2)cc1 (stereo not shown) [Example 5-11, 2-(3-cyanophenyl)-4-(4-methylphenyl)-4-phenyl-2-imidazoline] | 179 to 180 | 
O=[N+]([O-])c1cccc(C2=NC(c3ccc(F)cc3)(c3ccc(F)cc3)CN2)c1 [Example 5-13, 4,4-bis(4-fluorophenyl)-2-(3-nitrophenyl)-2-imidazoline] | 156 to 158 | 
CN(C)c1ccc(C2(c3ccccc3)CNC(c3cccc(C#N)c3)=N2)cc1 (stereo not shown) [Example 5-27, 2-(3-cyanophenyl)-4-(4-dimethylaminophenyl)-4-phenyl-2-imidazoline] | 210 to 213 | 
c1ccc(C2(c3ccccc3)CNC(c3cnccn3)=N2)cc1 [Example 5-31, 4,4-diphenyl-2-pyrazinyl-2-imidazoline] | 183 to 184 | 
CS(=O)(=O)c1cccc(C2=NC(c3ccc(F)cc3)(c3ccc(F)cc3)CN2)c1 [Example 5-34, 4,4-bis(4-fluorophenyl)-2-(3-methylsulfonylphenyl)-2-imidazoline] | 209 to 212 | 
N#Cc1cccc(C2=NC(c3ccccc3)(C3CCCCC3)CN2)c1 (stereo not shown) [Example 5-42, 2-(3-cyanophenyl)-4-cyclohexyl-4-phenyl-2-imidazoline] | 151 to 152 | 
N#Cc1cccc(C2=NC(c3ccccc3)(C3CCC3)CN2)c1 (stereo not shown) [Example 5-46, 2-(3-cyanophenyl)-4-cyclobutyl-4-phenyl-2-imidazoline] | 117 to 118 | 
CC1NC(c2cnccn2)=NC1(c1ccc(F)cc1)c1ccc(F)cc1 (stereo not shown) [Example 7, 4,4-bis(4-fluorophenyl)-5-methyl-2-pyrazinyl-2-imidazoline] |  | IC50 (human NPY Y5 receptor): 3.4 nM; half-life ([1]; Sprague-Dawley, rat, plasma, read-out: half-life in blood (converted)): 5.1 h; biological availability ratio [1]: 35%; cerebral concentration [2]: 2.95 nM/g; concentration at 2 h ([2]; cerebrospinal fluid, read-out: cerebrospinal concentration): 32 nM; concentration at 2 h ([2]; plasma, read-out: plasma concentration): 730 nM
Fc1ccc(C2(c3ccc(F)cc3)CNC(c3cccc(OC(F)(F)F)c3)=N2)cc1 [Example 9-4, 4,4-bis(4-fluorophenyl)-2-(3-trifluoromethoxyphenyl)-2-imidazoline] | 114 to 117 | 
Cc1cccc(C2=NC(c3ccc(F)cc3)(c3ccc(F)cc3)CN2)c1 [Example 9-6, 4,4-bis(4-fluorophenyl)-2-(3-methylphenyl)-2-imidazoline] | 148 to 149 | 
Fc1ccc(C2(c3ccc(F)cc3)CNC(c3cccs3)=N2)cc1 [Example 9-7, 4,4-bis(4-fluorophenyl)-2-(2-thienyl)-2-imidazoline] | 156 to 160 | 
Fc1ccc(C2(c3ccc(F)cc3)CNC(c3ccsc3)=N2)cc1 [Example 9-10, 4,4-bis(4-fluorophenyl)-2-(3-thienyl)-2-imidazoline] | 160 to 163 | 
N#Cc1ccnc(C2=NC(c3ccc(F)cc3)(c3ccnc(F)c3)CN2)c1 (stereo not shown) [Example 14-2, 2-(4-cyano-2-pyridyl)-4-(4-fluorophenyl)-4-(2-fluoro-4-pyridyl)-2-imidazoline] | 169 to 171 | 
